The test system of one data set is U-87 MG glioma cells. Put plainly: CCK-8 cell viability assay, U-87 MG. It counts as cell-based, human. Conditions: U-87 MG glioma / glioblastoma cells.
For another data set, the system named is U-87 MG cells. The data set is described as follows: Flow cytometry. It counts as cell-based, human. Conditions: IC50 concentrations, 24 h.

Experimental findings from paper PMC12268434 (ACS Omega, 2025) are described below.

Regarding `COc1c(O)cc2ccc3cc(O)ccc3c2c1OC` [compound 6, nudol], the “cytotoxic activity (in words)” value in the data set with U-87 MG glioma cells was “no cytotoxic activity”.

Turning to `COc1c(O)cc2c(c1OC)-c1ccc(O)cc1CC2` [compound 7, erianthridin], the “cytotoxic activity (in words)” value in the data set with U-87 MG glioma cells is “no cytotoxic activity”. For the molecule `COc1cccc2c1C(=O)c1c(O)c3c(c(O)c1C2=O)C[C@@](O)(C(=O)CO)C[C@@H]3O[C@H]1C[C@H](N)[C@H](O)[C@H](C)O1` [DOX, doxorubicin], the “induction of apoptosis (Annexin V-FITC/PI, in words)” value in the data set with U-87 MG cells is reported as “induce apoptosis”.
